Drawing on ChEMBL document CHEMBL1137638, “TEM-158 (CMT-9), a new member of the CMT-type extended-spectrum beta-lactamases” (Antimicrob Agents Chemother, 2007), this text covers MIC and IC50 for 13 compounds.

The subject of assay [1] is Escherichia coli. Description: Antibacterial activity against Escherichia coli BER1 producing beta-lactamase pI 5.2 and pI 5.4 by microdilution method. The format is functional. A general note: In broth dilution the organism is exposed to a series of concentrations in liquid medium.
The subject of assay [2] is Escherichia coli. Description: Antibacterial activity against rifampin-resistant Escherichia coli C600 transconjugant producing beta-lactamase of pI 5.2 by microdilution method. The format is functional.
Assay [3] deals with Escherichia coli. Briefly: Antibacterial activity against Escherichia coli DH5alpha producing beta-lactamase TEM-158 by microdilution method. The assay is classed as functional.
In assay [4] the test system is Escherichia coli. Description: Antibacterial activity against Escherichia coli DH5alpha producing beta-lactamase TEM-12 by microdilution method. The format is functional.
The test system of assay [5] is Escherichia coli. Briefly: Antibacterial activity against Escherichia coli DH5alpha producing beta-lactamase TEM-35 by microdilution method. The assay is classed as functional.
In assay [6] the test system is Escherichia coli. Briefly: Antibacterial activity against Escherichia coli DH5alpha producing beta-lactamase TEM-1 by microdilution method. The format is functional.
The test system of assay [7] is Escherichia coli. Description: Antibacterial activity against Escherichia coli DH5alpha by microdilution method. The format is functional.
Assay [8] concerns Escherichia coli. Briefly: Antibacterial activity against rifampin-resistant Escherichia coli C600 by microdilution method. The format is functional.
Assay [9] can be described thus: Inhibition of Escherichia coli DH5alpha beta-lactamase TEM-12.
Assay [10] in a line: Inhibition of Escherichia coli CF0042 beta-lactamase TEM-35.
Assay [11] can be described thus: Inhibition of Escherichia coli DH5alpha CL1179 clone beta-lactamase TEM-152 after 10 mins.
A short description of assay [12]: Inhibition of Escherichia coli DH10B beta-lactamase TEM-121 after 10 mins. Further details: species or system Escherichia coli str. K-12 substr. DH10B.
Assay [13] is described as follows: Inhibition of Escherichia coli TO799 beta-lactamase TEM-125 after 10 mins.

pIC50: −log10 of the molar value. In brackets after ≈: the same amount, converted by molar mass. Bounds are passed on as bounds.

As a reminder, the MIC is the lowest concentration found to suppress growth. Regarding `CO[C@@]1(NC(=O)Cc2cccs2)C(=O)N2C(C(=O)O)=C(COC(N)=O)CS[C@@H]21` [CEFOXITIN], the MIC with Escherichia coli [1] came to 0.25 µg/mL (≈ 0.585 µM); in the assay with Escherichia coli [2] it was 4 µg/mL (≈ 9.36 µM); against Escherichia coli [3], 4 µg/mL (≈ 9.36 µM); against Escherichia coli [4] it was 4 µg/mL (≈ 9.36 µM); against Escherichia coli [5] it was 4 µg/mL (≈ 9.36 µM); in the assay on Escherichia coli [6], 4 µg/mL (≈ 9.36 µM). For the same compound, the MIC with Escherichia coli [7] and against Escherichia coli [8] was 4 µg/mL (≈ 9.36 µM) throughout.

For `CC(C)(O/N=C(\C(=O)N[C@@H]1C(=O)N2C(C(=O)[O-])=C(C[n+]3ccccc3)CS[C@H]12)c1csc(N)n1)C(=O)O` [CEFTAZIDIME], the MIC with Escherichia coli [1] was 16 µg/mL (≈ 29.3 µM); with Escherichia coli [2] it was 16 µg/mL (≈ 29.3 µM); in the assay on Escherichia coli [3], 32 µg/mL (≈ 58.5 µM); against Escherichia coli [4], 32 µg/mL (≈ 58.5 µM); with Escherichia coli [5], 0.25 µg/mL (≈ 0.457 µM); with Escherichia coli [6], 0.12 µg/mL (≈ 0.22 µM). Also, the MIC against Escherichia coli [7] and with Escherichia coli [8] was 0.12 µg/mL (≈ 0.22 µM) in each case.

With `CC1(C)S[C@@H]2[C@H](NC(=O)[C@H](N)c3ccc(O)cc3)C(=O)N2[C@H]1C(=O)O` [AMOXICILLIN], the MIC with Escherichia coli [1], in the assay with Escherichia coli [2], with Escherichia coli [3], in the assay on Escherichia coli [4], with Escherichia coli [5] and with Escherichia coli [6] was > 2050 µg/mL in each case. Also, the MIC in the assay on Escherichia coli [7] and against Escherichia coli [8] was 4 µg/mL (≈ 10.9 µM) each time.

Take `C[C@H]1[C@H](NC(=O)/C(=N\OC(C)(C)C(=O)O)c2csc(N)n2)C(=O)N1S(=O)(=O)O` [AZTREONAM]: the MIC in the assay with Escherichia coli [1] was 1 µg/mL (≈ 2.3 µM); in the assay on Escherichia coli [2], 1 µg/mL (≈ 2.3 µM); against Escherichia coli [3], 1 µg/mL (≈ 2.3 µM); against Escherichia coli [4], 4 µg/mL (≈ 9.19 µM).

For the compound `CC(=O)OCC1=C(C(=O)O)N2C(=O)[C@@H](NC(=O)Cc3cccs3)[C@H]2SC1` [CEPHALOTHIN], the MIC came to 32 µg/mL (≈ 80.7 µM) against Escherichia coli [1]; 16 µg/mL (≈ 40.4 µM) against Escherichia coli [2]; 32 µg/mL (≈ 80.7 µM) against Escherichia coli [3]; 8 µg/mL (≈ 20.2 µM) with Escherichia coli [4]; 16 µg/mL (≈ 40.4 µM) against Escherichia coli [5]; 4 µg/mL (≈ 10.1 µM) against Escherichia coli [6]. In addition, the minimal inhibitory concentration (MIC) with Escherichia coli [7] and against Escherichia coli [8] was 4 µg/mL (≈ 10.1 µM) each time.

As to `CC1(C)S[C@@H]2[C@H](NC(=O)[C@H](C(=O)O)c3ccsc3)C(=O)N2[C@H]1C(=O)O` [TICARCILLIN], the MIC against Escherichia coli [1], with Escherichia coli [2], in the assay with Escherichia coli [3], in the assay with Escherichia coli [4], in the assay on Escherichia coli [5] and in the assay on Escherichia coli [6] was > 2050 µg/mL in each case. Besides, the MIC in the assay on Escherichia coli [7] and against Escherichia coli [8] was 2 µg/mL (≈ 5.2 µM) throughout.

Regarding `CO/N=C(\C(=O)N[C@@H]1C(=O)N2C(C(=O)[O-])=C(C[N+]3(C)CCCC3)CS[C@H]12)c1csc(N)n1`, the MIC is 4 µg/mL (≈ 8.32 µM) in the assay with Escherichia coli [1]; 4 µg/mL (≈ 8.32 µM) in the assay on Escherichia coli [2]; 4 µg/mL (≈ 8.32 µM) with Escherichia coli [3]; 1 µg/mL (≈ 2.08 µM) against Escherichia coli [4]; < 0.06 µg/mL against Escherichia coli [5]; < 0.06 µg/mL in the assay on Escherichia coli [6]. The MIC in the assay on Escherichia coli [7] and against Escherichia coli [8] was < 0.06 µg/mL each time.

In general, pIC50 refers to the negative decadic logarithm of the IC50, by convention in mol/L. For the compound `O=C(O)[C@H]1/C(=C/CO)O[C@@H]2CC(=O)N21` [CLAVULANIC ACID], the pIC50 in [9] is 7.70; in assay [10], 4.57; in [11], 6.00; in assay [12], 6.00; in assay [13] it was 4.87.

For `C[C@@H](O)[C@H]1C(=O)N2C(C(=O)O)=C(SCCNC=N)C[C@H]12` [IMIPENEM ANHYDROUS], in the assay on Escherichia coli [4], the MIC worked out at 0.25 µg/mL (≈ 0.835 µM).

Take `CO/N=C(\C(=O)N[C@@H]1C(=O)N2C(C(=O)O)=C(COC(C)=O)CS[C@H]12)c1csc(N)n1` [CEFOTAXIME]: the MIC with Escherichia coli [1] was 0.25 µg/mL (≈ 0.549 µM); with Escherichia coli [2], 0.25 µg/mL (≈ 0.549 µM); against Escherichia coli [3] it was 0.25 µg/mL (≈ 0.549 µM); against Escherichia coli [4], 0.12 µg/mL (≈ 0.263 µM); against Escherichia coli [5] it was 0.06 µg/mL (≈ 0.132 µM); against Escherichia coli [6] it was 0.06 µg/mL (≈ 0.132 µM). For the same compound, the MIC with Escherichia coli [7] and in the assay with Escherichia coli [8] was 0.06 µg/mL (≈ 0.132 µM) throughout.

On to `C[C@]1(Cn2ccnn2)[C@H](C(=O)O)N2C(=O)C[C@H]2S1(=O)=O` [TAZOBACTAM], for which the pIC50 in [9] is 6.89; in assay [10], 5.74.

As to `CCN1CCN(C(=O)N[C@@H](C(=O)N[C@@H]2C(=O)N3[C@@H]2SC(C)(C)[C@@H]3C(=O)O)c2ccccc2)C(=O)C1=O` [PIPERACILLIN], the MIC with Escherichia coli [1] was 2050 µg/mL (≈ 3960 µM); against Escherichia coli [2], 2050 µg/mL (≈ 3960 µM); against Escherichia coli [3], 2050 µg/mL (≈ 3960 µM); with Escherichia coli [4], > 2050 µg/mL; in the assay with Escherichia coli [5], > 2050 µg/mL; in the assay on Escherichia coli [6], 512 µg/mL (≈ 989 µM). The MIC in the assay on Escherichia coli [7] and against Escherichia coli [8] was 2 µg/mL (≈ 3.86 µM) in each case.

Consider `CO/N=C(\C(=O)N[C@@H]1C(=O)N2C(C(=O)O)=C(COC(N)=O)CS[C@H]12)c1ccco1` [CEFUROXIME], for which the MIC in the assay with Escherichia coli [1] worked out at 8 µg/mL (≈ 18.9 µM); with Escherichia coli [2], 4 µg/mL (≈ 9.43 µM); in the assay with Escherichia coli [3] it was 8 µg/mL (≈ 18.9 µM); against Escherichia coli [4], 8 µg/mL (≈ 18.9 µM); against Escherichia coli [5] it was 8 µg/mL (≈ 18.9 µM); with Escherichia coli [6], 4 µg/mL (≈ 9.43 µM). The MIC with Escherichia coli [7] and with Escherichia coli [8] was 4 µg/mL (≈ 9.43 µM) each time.
